Experimental data from ChEMBL document CHEMBL6120963, “Discovery of Novel PROTAC SIRT6 Degraders with Potent Efficacy against Hepatocellular Carcinoma” (J Med Chem, 2024).

What was measured:
[1] = tested on: SK-HEP1; experiment: Antitumor activity against human SK-HEP1 cells xenografted in BALB/c nude mouse at 25 mg/kg treated for 28 to 30 days relative to control; assay type: functional; details: time 28-30 day
[2] = Toxicity in BALB/c nude mouse xenografted with human SK-HEP1 cells assessed as body weight loss at 25 mg/kg treated for 28 to 30 days; assay type: organism-based; details: in vivo, time 28-30 day
[3] = Toxicity in BALB/c nude mouse xenografted with human SK-HEP1 cells assessed as pathological damage in heart at 25 mg/kg treated for 28 to 30 days by H and E staining based analysis; assay type: organism-based; details: in vivo, time 28-30 day
[4] = Toxicity in BALB/c nude mouse xenografted with human SK-HEP1 cells assessed as pathological damage in liver at 25 mg/kg treated for 28 to 30 days by H and E staining based analysis; assay type: organism-based; details: in vivo, time 28-30 day
[5] = Toxicity in BALB/c nude mouse xenografted with human SK-HEP1 cells assessed as pathological damage in spleen at 25 mg/kg treated for 28 to 30 days by H and E staining based analysis; assay type: organism-based; details: in vivo, time 28-30 day
[6] = Toxicity in BALB/c nude mouse xenografted with human SK-HEP1 cells assessed as pathological damage in lungs at 25 mg/kg treated for 28 to 30 days by H and E staining based analysis; assay type: organism-based; details: in vivo, time 28-30 day
[7] = Toxicity in BALB/c nude mouse xenografted with human SK-HEP1 cells assessed as pathological damage in kidney at 25 mg/kg treated for 28 to 30 days by H and E staining based analysis; assay type: organism-based; details: in vivo, time 28-30 day
[8] = Toxicity in BALB/c nude mouse xenografted with human SK-HEP1 cells assessed as histopathological abnormalities in heart at 25 mg/kg treated for 28 to 30 days by H and E staining based analysis; assay type: organism-based; details: in vivo, time 28-30 day
[9] = Toxicity in BALB/c nude mouse xenografted with human SK-HEP1 cells assessed as histopathological abnormalities in spleen at 25 mg/kg treated for 28 to 30 days by H and E staining based analysis; assay type: organism-based; details: in vivo, time 28-30 day
[10] = Toxicity in BALB/c nude mouse xenografted with human SK-HEP1 cells assessed as histopathological abnormalities in lungs at 25 mg/kg treated for 28 to 30 days by H and E staining based analysis; assay type: organism-based; details: in vivo, time 28-30 day

CNC(=O)c1cc(Oc2ccc(NC(=O)Nc3ccc(Cl)c(C(F)(F)F)c3)cc2)ccn1 [SORAFENIB]
Toxic: Activity [2]
35.4%: T/C [1]
Non-toxic: Activity [3] | Activity [4] | Activity [5] | Activity [6] | Activity [7] | Activity [8] | Activity [9] | Activity [10]
